From ChEMBL document CHEMBL5291721, “A preclinical secondary pharmacology resource illuminates target-adverse drug reaction associations of marketed drugs” (Nat Commun, 2023)

Assays:
[1] = target: T1, 5-hydroxytryptamine receptor 2B (Homo sapiens, UniProt P41595); type: functional, cell-based
[2] = target: T2, Muscarinic acetylcholine receptor M2 (Homo sapiens, UniProt P08172); type: functional, cell-based
T2 sequence (P08172 whole entry): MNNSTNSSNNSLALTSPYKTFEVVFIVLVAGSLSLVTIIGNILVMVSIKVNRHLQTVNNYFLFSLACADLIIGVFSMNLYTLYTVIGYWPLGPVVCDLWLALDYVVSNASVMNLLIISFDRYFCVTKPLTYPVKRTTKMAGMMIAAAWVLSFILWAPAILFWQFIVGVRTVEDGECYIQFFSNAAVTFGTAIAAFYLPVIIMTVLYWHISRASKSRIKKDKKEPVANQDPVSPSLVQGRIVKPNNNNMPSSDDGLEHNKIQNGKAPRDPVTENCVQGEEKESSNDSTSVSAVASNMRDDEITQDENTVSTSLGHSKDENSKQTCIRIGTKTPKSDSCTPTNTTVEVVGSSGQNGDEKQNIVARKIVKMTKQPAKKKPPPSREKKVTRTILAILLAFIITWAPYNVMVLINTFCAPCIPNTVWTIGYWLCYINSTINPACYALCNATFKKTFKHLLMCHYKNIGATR

[3] = target: T3, 5-hydroxytryptamine receptor 2C (Homo sapiens, UniProt P28335)
T3 sequence (P28335 whole entry): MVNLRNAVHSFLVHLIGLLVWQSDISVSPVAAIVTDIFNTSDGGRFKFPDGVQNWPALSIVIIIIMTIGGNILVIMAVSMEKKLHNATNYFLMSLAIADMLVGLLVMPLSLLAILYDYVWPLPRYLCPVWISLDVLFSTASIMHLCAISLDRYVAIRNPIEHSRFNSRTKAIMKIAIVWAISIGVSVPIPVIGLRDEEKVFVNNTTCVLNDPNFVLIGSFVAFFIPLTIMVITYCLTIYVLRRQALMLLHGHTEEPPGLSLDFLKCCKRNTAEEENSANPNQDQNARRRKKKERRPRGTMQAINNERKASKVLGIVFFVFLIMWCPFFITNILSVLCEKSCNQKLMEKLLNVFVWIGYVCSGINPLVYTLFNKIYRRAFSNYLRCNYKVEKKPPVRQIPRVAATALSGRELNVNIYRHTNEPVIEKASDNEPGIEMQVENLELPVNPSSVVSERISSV

Acetylcholinesterase = Acetylcholinesterase (Homo sapiens, UniProt P22303); type: functional
Chain of Acetylcholinesterase (P22303 whole entry): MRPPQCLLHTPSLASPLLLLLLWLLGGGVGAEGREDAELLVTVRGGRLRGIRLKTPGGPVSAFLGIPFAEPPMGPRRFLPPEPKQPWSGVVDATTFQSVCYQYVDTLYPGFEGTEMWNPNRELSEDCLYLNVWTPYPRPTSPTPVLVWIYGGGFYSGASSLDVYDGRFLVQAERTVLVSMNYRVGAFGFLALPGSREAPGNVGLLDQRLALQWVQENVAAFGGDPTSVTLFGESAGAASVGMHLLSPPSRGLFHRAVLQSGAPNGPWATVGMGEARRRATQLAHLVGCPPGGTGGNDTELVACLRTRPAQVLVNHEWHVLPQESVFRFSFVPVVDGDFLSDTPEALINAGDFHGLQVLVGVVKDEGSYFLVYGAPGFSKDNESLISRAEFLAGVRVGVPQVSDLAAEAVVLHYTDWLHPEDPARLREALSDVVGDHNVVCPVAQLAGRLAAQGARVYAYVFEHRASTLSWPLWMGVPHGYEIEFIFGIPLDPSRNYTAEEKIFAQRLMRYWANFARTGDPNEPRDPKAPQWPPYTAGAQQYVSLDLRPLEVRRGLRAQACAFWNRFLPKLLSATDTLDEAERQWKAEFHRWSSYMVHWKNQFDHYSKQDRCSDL

[4] = target: Prostaglandin G/H synthase 1 (Homo sapiens, UniProt P23219); type: functional
Chain of Prostaglandin G/H synthase 1 (P23219 whole entry): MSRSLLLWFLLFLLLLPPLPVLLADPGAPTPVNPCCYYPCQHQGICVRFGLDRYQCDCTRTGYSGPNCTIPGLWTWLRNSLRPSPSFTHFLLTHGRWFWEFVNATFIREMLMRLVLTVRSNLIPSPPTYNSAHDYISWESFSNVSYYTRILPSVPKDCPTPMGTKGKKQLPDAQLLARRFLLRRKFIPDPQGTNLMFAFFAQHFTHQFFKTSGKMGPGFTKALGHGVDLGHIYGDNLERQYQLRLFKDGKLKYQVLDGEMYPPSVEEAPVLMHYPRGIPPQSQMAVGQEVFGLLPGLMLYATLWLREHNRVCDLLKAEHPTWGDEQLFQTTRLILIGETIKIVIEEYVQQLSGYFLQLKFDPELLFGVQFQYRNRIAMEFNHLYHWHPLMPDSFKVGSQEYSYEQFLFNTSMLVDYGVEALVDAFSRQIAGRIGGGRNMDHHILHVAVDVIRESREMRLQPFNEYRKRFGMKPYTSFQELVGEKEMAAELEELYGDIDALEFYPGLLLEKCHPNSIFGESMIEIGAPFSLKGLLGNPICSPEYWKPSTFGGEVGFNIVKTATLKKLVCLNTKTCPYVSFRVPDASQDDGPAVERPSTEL

[5] = target: T1, 5-hydroxytryptamine receptor 2B; type: functional, cell-based; remark: listed apart in the source
[6] = target: 3',5'-cyclic-AMP phosphodiesterase 4A (Homo sapiens, UniProt P27815); type: functional
Chain of 3',5'-cyclic-AMP phosphodiesterase 4A (P27815 whole entry): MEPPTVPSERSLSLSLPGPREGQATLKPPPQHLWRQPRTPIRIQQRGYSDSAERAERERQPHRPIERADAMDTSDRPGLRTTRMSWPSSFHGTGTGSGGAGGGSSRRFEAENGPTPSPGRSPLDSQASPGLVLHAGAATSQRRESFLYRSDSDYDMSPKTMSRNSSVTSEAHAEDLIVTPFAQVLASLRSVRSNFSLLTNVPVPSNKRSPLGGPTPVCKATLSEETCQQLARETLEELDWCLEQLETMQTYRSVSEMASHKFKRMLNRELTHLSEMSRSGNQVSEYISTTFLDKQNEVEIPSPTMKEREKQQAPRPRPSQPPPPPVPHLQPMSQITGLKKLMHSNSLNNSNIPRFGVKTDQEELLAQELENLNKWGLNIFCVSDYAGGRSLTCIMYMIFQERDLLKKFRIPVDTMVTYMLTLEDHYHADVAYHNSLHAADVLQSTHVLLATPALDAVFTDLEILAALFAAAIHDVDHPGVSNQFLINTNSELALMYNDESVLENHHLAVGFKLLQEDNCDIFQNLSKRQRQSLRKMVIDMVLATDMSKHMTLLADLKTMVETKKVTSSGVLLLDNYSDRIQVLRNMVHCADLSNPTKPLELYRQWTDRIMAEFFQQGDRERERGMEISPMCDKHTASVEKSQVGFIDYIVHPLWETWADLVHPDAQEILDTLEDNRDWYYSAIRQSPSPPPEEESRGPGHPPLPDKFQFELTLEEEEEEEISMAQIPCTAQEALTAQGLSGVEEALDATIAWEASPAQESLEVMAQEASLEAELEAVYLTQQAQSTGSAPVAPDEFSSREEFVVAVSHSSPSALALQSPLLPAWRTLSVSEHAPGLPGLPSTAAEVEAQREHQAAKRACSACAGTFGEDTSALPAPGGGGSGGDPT

[7] = target: cGMP-inhibited 3',5'-cyclic phosphodiesterase 3A (Homo sapiens, UniProt Q14432); type: functional
Chain of cGMP-inhibited 3',5'-cyclic phosphodiesterase 3A (Q14432 whole entry): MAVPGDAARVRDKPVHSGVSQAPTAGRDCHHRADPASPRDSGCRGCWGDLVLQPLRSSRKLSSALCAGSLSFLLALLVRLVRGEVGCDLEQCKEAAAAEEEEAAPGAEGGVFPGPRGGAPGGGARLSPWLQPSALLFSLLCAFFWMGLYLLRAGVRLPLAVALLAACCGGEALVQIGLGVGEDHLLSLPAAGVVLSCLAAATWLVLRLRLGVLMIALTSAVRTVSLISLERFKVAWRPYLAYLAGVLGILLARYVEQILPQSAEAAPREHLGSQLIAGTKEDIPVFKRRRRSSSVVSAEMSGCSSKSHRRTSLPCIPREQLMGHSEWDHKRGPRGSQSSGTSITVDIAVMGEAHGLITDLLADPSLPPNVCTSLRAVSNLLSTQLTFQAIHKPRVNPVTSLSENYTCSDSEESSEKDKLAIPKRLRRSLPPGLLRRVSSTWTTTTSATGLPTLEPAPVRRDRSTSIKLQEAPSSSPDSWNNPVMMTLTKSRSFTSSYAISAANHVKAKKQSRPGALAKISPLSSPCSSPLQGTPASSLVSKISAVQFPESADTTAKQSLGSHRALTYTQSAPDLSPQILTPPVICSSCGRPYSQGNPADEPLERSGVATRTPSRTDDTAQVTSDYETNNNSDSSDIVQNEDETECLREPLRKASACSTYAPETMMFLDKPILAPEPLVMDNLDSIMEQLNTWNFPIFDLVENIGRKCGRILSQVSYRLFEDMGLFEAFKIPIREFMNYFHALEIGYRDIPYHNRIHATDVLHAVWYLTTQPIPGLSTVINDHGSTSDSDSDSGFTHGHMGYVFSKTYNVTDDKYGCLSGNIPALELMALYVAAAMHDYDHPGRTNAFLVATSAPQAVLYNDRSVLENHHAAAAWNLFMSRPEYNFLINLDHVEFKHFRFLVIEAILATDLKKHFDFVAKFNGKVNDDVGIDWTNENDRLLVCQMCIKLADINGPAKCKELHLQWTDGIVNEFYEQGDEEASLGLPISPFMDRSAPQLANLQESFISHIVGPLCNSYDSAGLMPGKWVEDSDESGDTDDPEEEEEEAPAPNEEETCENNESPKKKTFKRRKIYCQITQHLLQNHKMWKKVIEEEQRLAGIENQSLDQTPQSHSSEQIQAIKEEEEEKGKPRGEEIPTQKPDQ

[8] = target: Sodium-dependent dopamine transporter (Homo sapiens, UniProt Q01959)
Chain of Sodium-dependent dopamine transporter (Q01959 whole entry): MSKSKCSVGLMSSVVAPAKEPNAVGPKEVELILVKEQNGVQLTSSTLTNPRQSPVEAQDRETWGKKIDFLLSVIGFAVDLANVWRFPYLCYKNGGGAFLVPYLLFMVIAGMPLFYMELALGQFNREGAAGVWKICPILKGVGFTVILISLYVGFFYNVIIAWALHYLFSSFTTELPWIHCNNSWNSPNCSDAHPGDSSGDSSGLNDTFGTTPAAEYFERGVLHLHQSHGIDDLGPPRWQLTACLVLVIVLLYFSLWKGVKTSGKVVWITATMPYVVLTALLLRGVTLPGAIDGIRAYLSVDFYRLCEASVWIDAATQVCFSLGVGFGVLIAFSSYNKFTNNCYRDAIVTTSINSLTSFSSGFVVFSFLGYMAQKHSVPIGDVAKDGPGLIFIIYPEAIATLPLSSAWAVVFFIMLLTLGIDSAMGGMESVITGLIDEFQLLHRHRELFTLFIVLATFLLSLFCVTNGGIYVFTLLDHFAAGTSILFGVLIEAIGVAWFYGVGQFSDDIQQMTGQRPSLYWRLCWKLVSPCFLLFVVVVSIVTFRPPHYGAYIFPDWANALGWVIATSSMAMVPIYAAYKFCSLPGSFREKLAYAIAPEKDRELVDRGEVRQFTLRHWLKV

Mu-type opioid receptor = Mu-type opioid receptor (Homo sapiens, UniProt P35372)
Chain of Mu-type opioid receptor (P35372 whole entry): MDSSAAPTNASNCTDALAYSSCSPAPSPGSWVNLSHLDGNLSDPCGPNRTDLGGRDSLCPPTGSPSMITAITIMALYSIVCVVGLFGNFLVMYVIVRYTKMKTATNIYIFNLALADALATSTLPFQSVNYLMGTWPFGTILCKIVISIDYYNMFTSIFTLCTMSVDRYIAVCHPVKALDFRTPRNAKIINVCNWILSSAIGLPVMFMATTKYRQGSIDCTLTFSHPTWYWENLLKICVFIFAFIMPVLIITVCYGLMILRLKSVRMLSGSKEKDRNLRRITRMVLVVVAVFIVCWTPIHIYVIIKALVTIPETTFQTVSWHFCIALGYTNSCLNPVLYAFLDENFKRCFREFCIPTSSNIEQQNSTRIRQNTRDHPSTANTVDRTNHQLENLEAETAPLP

[9] = target: T4, Amine oxidase [flavin-containing] A (Homo sapiens, UniProt P21397); type: functional
T4 sequence (P21397 whole entry): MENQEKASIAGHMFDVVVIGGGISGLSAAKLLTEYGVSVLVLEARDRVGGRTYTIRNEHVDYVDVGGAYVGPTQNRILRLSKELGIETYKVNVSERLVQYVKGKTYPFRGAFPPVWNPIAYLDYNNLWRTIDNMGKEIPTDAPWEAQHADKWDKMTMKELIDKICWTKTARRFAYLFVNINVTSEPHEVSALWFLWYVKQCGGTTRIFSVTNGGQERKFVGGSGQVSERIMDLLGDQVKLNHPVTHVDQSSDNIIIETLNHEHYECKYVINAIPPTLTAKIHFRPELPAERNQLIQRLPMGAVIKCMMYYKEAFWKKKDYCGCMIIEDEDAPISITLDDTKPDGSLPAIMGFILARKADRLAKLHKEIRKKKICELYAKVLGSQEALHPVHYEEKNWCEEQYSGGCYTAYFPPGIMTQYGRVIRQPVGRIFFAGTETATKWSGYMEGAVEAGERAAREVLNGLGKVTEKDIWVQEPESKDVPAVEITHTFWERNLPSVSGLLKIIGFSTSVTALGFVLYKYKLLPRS

Progesterone receptor = target: T5, Progesterone receptor (Homo sapiens, UniProt P06401)
T5 sequence (P06401 whole entry): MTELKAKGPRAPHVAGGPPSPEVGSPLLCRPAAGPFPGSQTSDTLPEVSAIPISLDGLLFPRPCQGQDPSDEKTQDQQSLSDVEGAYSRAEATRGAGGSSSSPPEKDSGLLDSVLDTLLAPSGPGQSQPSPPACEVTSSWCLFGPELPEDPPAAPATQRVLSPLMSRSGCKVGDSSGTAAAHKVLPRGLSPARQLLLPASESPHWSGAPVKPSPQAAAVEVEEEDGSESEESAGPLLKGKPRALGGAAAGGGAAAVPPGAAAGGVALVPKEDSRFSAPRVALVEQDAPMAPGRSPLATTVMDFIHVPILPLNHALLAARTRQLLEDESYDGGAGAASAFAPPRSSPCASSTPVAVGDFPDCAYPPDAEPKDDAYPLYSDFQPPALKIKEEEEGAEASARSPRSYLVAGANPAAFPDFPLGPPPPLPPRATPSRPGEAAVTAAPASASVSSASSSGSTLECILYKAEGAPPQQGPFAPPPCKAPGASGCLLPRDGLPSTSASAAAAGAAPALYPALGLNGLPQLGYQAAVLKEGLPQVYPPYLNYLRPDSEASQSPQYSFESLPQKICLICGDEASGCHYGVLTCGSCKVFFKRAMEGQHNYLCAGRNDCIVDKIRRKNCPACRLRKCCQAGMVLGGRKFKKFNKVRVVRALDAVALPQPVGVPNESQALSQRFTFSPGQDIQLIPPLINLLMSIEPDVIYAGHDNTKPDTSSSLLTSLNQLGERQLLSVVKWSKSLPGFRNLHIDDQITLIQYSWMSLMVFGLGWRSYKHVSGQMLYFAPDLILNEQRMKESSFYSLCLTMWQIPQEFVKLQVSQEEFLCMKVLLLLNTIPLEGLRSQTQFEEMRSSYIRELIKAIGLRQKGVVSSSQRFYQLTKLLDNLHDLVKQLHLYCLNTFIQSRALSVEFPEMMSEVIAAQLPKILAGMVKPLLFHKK
Further: assay procedure not described here.

T1 sequence (P41595 whole entry): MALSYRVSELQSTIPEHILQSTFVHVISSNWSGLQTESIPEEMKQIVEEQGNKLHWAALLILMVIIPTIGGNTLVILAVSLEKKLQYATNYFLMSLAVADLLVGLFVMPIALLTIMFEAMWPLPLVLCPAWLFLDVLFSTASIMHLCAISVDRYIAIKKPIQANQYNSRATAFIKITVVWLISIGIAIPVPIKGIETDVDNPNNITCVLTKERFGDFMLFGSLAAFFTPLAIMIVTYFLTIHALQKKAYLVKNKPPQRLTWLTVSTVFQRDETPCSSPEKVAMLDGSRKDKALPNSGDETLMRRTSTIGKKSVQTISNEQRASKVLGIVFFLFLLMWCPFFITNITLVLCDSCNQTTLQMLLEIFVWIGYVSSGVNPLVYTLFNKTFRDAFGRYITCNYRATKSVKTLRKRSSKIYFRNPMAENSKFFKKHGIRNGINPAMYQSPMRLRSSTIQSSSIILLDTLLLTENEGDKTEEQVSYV

SMILES	AC50 [1]	AC50 [2]	AC50 [3]	further results
CCOc1nc2cccc(C(=O)O)c2n1Cc1ccc(-c2ccccc2-c2nnn[nH]2)cc1	> 30 µM	> 30 µM	14 µM	
CC[C@@H]1C[C@]1(NC(=O)[C@@H]1C[C@@H]2CN1C(=O)[C@H](C(C)(C)C)NC(=O)OCC(C)(C)CCCCc1cccc3c1CN(C3)C(=O)O2)C(=O)NS(=O)(=O)C1CC1				AC50 (Acetylcholinesterase): > 30 µM; AC50 [4]: 26.8 µM; AC50 [5]: > 30 µM; AC50 [6]: > 30 µM; AC50 [7]: > 30 µM; AC50 [8]: > 30 µM; AC50 (Mu-type opioid receptor): > 30 µM; AC50 [9]: > 30 µM; AC50 (Progesterone receptor): > 30 µM
CCOc1cc([C@@H](CS(C)(=O)=O)N2C(=O)c3cccc(NC(C)=O)c3C2=O)ccc1OC	> 30 µM	> 30 µM	> 30 µM	
CC(=O)Nc1ccc(CC(=O)O)cc1 [ACTARIT]	> 30 µM	> 30 µM	> 30 µM	
C[C@H]1CN(C[C@H](Cc2ccccc2)C(=O)NCC(=O)O)CC[C@@]1(C)c1cccc(O)c1 [ALVIMOPAN]				AC50 (Acetylcholinesterase): > 30 µM; AC50 [4]: > 30 µM; AC50 [5]: > 30 µM; AC50 [6]: > 30 µM; AC50 [7]: > 30 µM; AC50 [8]: > 30 µM; AC50 [9]: > 30 µM; AC50 (Progesterone receptor): > 30 µM
CC(C(=O)O)c1ccc2oc(-c3ccc(Cl)cc3)nc2c1 (centres undefined) [BENOXAPROFEN]	> 30 µM	> 30 µM	> 30 µM	
Nc1c(CC(=O)O)cccc1C(=O)c1ccc(Br)cc1 [BROMFENAC]				AC50 (Acetylcholinesterase): > 30 µM; AC50 [5]: > 30 µM; AC50 [6]: > 30 µM; AC50 [7]: > 30 µM; AC50 [8]: > 30 µM; AC50 (Mu-type opioid receptor): > 30 µM; AC50 [9]: > 30 µM; AC50 (Progesterone receptor): > 30 µM
CC1(C)S[C@@H]2[C@H](NC(=O)C(C(=O)O)c3ccccc3)C(=O)N2[C@H]1C(=O)O (some centres undefined) [CARBENICILLIN]	> 30 µM	> 30 µM	> 30 µM	
Cc1nnc(SCC2=C(C(=O)O)N3C(=O)[C@@H](NC(=O)Cn4cnnn4)[C@H]3SC2)s1 [CEFAZOLIN]	> 300 µM	> 300 µM	> 300 µM	
CC=CC1=C(C(=O)O)N2C(=O)[C@@H](NC(=O)[C@H](N)c3ccc(O)cc3)[C@H]2SC1 [CEFPROZIL]	> 30 µM	> 30 µM	> 30 µM	
CC(C)(O/N=C(\C(=O)N[C@@H]1C(=O)N2C(C(=O)[O-])=C(C[n+]3ccccc3)CS[C@H]12)c1csc(N)n1)C(=O)O [CEFTAZIDIME]	> 300 µM	> 300 µM	> 300 µM	
CCCNC(=O)NS(=O)(=O)c1ccc(Cl)cc1 [CHLORPROPAMIDE]	> 10 µM	> 10 µM	> 30 µM	
Clc1ccc(Cn2c(CN3CCCC3)nc3ccccc32)cc1 [CLEMIZOLE]	0.67 µM	> 10 µM	> 30 µM	
CCC(=O)O[C@]1(C(=O)CCl)[C@@H](C)C[C@H]2[C@@H]3CCC4=CC(=O)C=C[C@]4(C)[C@@]3(F)[C@@H](O)C[C@@]21C [CLOBETASOL PROPIONATE]	> 30 µM	> 30 µM	> 30 µM	
Cc1nc(Nc2ncc(C(=O)Nc3c(C)cccc3Cl)s2)cc(N2CCN(CCO)CC2)n1 [DASATINIB]	> 30 µM	> 30 µM	14.1 µM	
CC(C)Cc1ccc([C@H](C)C(=O)O)cc1 [DEXIBUPROFEN]	> 30 µM	> 30 µM	> 30 µM	
O=C(O)Cc1ccccc1Nc1c(Cl)cccc1Cl [DICLOFENAC]	> 10 µM	> 10 µM	> 10 µM	AC50 (Acetylcholinesterase): > 3 µM; AC50 [5]: > 3 µM; AC50 [6]: > 3 µM; AC50 [7]: > 3 µM; AC50 [8]: > 3 µM; AC50 (Mu-type opioid receptor): > 3 µM; AC50 [9]: > 3 µM; AC50 (Progesterone receptor): > 3 µM
CNC[C@H](O)c1ccc(O)c(O)c1 [EPINEPHRINE]	> 30 µM	> 30 µM	> 30 µM	
Cc1onc(-c2c(F)cccc2Cl)c1C(=O)N[C@@H]1C(=O)N2[C@@H]1SC(C)(C)[C@@H]2C(=O)O [FLOXACILLIN]	> 30 µM	> 30 µM	> 30 µM	
CCCCCCCN(CC)CCCC(O)c1ccc(NS(C)(=O)=O)cc1 (centres undefined) [IBUTILIDE]	> 30 µM	> 30 µM	> 30 µM	
CC[C@H](C)C(=O)O[C@H]1C[C@@H](C)C=C2C=C[C@H](C)[C@H](CC[C@@H]3C[C@@H](O)CC(=O)O3)[C@H]21 [LOVASTATIN]	> 10 µM	> 10 µM	> 30 µM	
CC[C@@H](CO)NC(=O)[C@@H]1C=C2c3cccc4c3c(cn4C)C[C@H]2N(C)C1 [METHYSERGIDE]		> 30 µM	0.0082 µM	
CNC(=C[N+](=O)[O-])NCCSCc1csc(CN(C)C)n1 [NIZATIDINE]	> 10 µM	> 10 µM	> 30 µM	
CN1Cc2c(N)cccc2C(c2ccccc2)C1 (centres undefined) [NOMIFENSINE]	> 30 µM	> 30 µM		
CC(CN1c2ccccc2Sc2ccccc21)N(C)C (centres undefined) [PROMETHAZINE]	> 10 µM	> 30 µM	0.5 µM	AC50 (Acetylcholinesterase): > 30 µM; AC50 [4]: > 30 µM; AC50 [5]: > 30 µM; AC50 [6]: > 30 µM; AC50 [7]: > 30 µM; AC50 [8]: > 30 µM; AC50 [9]: > 30 µM; AC50 (Progesterone receptor): > 30 µM
CCCc1cc(=O)[nH]c(=S)[nH]1 [PROPYLTHIOURACIL]	> 10 µM	> 10 µM	> 30 µM	
Cn1cc(C(=O)[C@@H]2CCc3nc[nH]c3C2)c2ccccc21 [RAMOSETRON]	> 30 µM	> 30 µM	> 30 µM	
CN(CCOc1ccc(CC2SC(=O)NC2=O)cc1)c1ccccn1 (centres undefined) [ROSIGLITAZONE]	> 30 µM	> 30 µM	> 30 µM	
S=P(N1CC1)(N1CC1)N1CC1 [THIOTEPA]	> 30 µM		9.4 µM	
CC(C)[C@H](N)C(=O)OCCOCn1cnc2c(=O)[nH]c(N)nc21 [VALACYCLOVIR]	> 10 µM	> 10 µM	> 30 µM	
